Data taken from patent EP4332574A1, “SELF-ASSEMBLED CHEMOSENSORS FOR DETECTING POLYAMINES IN PHYSIOLOGICAL MEDIA AND BIOFLUIDS” (Karlsruher Institut für Technologie, priority 2022, dated 2024).

Experiments:
[1] = Host-dye fluorescence titration (quenching of dye emission on stepwise addition of host); format: binding; details: for binding affinity (Ka): host-dye binding interaction in surine, fluorescence monitored at 423 nm
Excerpt: Addition of the receptor host molecule to the dye solution results in a quenching of the dye emission upon the formation of the self-assembled P5AS-MDAP host-dye fluorescent chemosensor. Thereby, in the sensing assay, in the presence of polyamines, the dye is displaced from the host cavity resulting in a fluorescence "turn-on" signal. The involved processes show very fast binding kinetics and fast signal responses.

[2] = system: P5AS-MDAP host-dye chemosensor; test: Fluorescence turn-on indicator displacement sensing assay with P5AS-MDAP chemosensor in artificial media; format: binding; details: for relative fluorescence intensity changes monitored at 423 nm: addition of P5AS-MDAP
Excerpt: Thereby, in the sensing assay, in the presence of polyamines, the dye is displaced from the host cavity resulting in a fluorescence "turn-on" signal.
(§1) Fig. 2 Schematic illustration of established cation exchange reactions in systems wherein the known chemosensors become dysfunctional in biologically relevant media such as PBS or urine. At high salt concentrations, the signalling binding pockets of the receptor host molecule are occupied by salts and are no longer available for the detection of relevant analytes. Moreover, chemosensors self-assembled from a receptor host and dye molecules decompose at high salt concentrations as the dye is pushed out of the receptor by the salts. Fig. 3 • (a) Chemical structure of the preferred host molecule P5AS. • (b) Chemical structure of the preferred dye molecule MDAP. • (c) Chemical structure of the preferred dye molecule BrDAP. […] Fig. 8 Relative fluorescence intensity changes monitored at 433 nm on addition of P5AS-BrDAP chemosensor (21.6 µM) to • (a) human urine samples collected from four healthy individuals (diluted two times) and later spiked with several polyamines and polyamine mixtures (each at 5 µM) in order to simulate urine from diseased patients and • (b) human saliva sample collected from a healthy individual (undiluted) and later spiked with several polyamines and polyamine mixtures (each at 5 µM) in order to simulate saliva from diseased patients (microplate reader assay). […] Fig. 9 Relative fluorescence intensity changes monitored at 423 nm upon addition of • (a) P5AS-MDAP host-dye chemosensor and • (b) P5AS-BrDAP host-dye chemosensor to a solution of spermine (spm, 3.3 µM) in neurobasal™ medium.

[3] = system: P5AS-BrDAP host-dye chemosensor; test: Fluorescence turn-on indicator displacement sensing assay with P5AS-BrDAP chemosensor in artificial media; format: binding; details: addition of P5AS-BrDAP
P5AS-BrDAP chemosensor = details: chemosensor 21.6 µM; human urine (diluted two times) and saliva (undiluted), spiked each at 5 µM
Excerpt: as §1, with “salts.” for “salts. Fig. 3 • (a) Chemical structure of the preferred host molecule P5AS. • (b) Chemical structure of the preferred dye molecule MDAP. • (c) Chemical structure of the preferred dye molecule BrDAP.”

[4] = spermine 3.3 µM in neurobasal medium

SMILES	binding affinity (Ka) [1]	relative fluorescence intensity changes monitored at 423 nm ([2]; polyamine 3.3 µM in surine)	relative fluorescence intensity changes monitored at 423 nm ([3]; polyamine 3.3 µM in surine)	also measured
BrCCCC[n+]1cc2ccc3c[n+](CCCCBr)cc4ccc(c1)c2c34 [BrDAP, N,N'-bis(4-bromobutyl)-2,7-diazapyrenium dication]	4.5e+08 M⁻¹	–	–	stronger binding affinity for P5AS compared to MDAP [1]: 10^2 times; binding affinity towards P5AS ([1]; order of magnitude, Figure 7a experiments in surine): 10^8 M^-1
C[n+]1cc2ccc3c[n+](C)cc4ccc(c1)c2c34 [MDAP, N,N'-dimethyl-2,7-diazapyrenium dication]	4.9e+06 M⁻¹	–	–	–
NCCCCN [Putrescine, putrescine]	–	does not give rise to any changes in the fluorescence intensity	–	–
NCCCCCN [cadaverine]	–	strong fluorescence enhancement	no significant fluorescence signal change	–

Continued, in another order:

binding affinity (Ka) [1]	relative fluorescence intensity changes monitored at 423 nm ([2]; polyamine 3.3 µM in surine)	SMILES	relative fluorescence intensity changes monitored at 423 nm ([3]; polyamine 3.3 µM in surine)	also measured
–	strong fluorescence enhancement	NCCCCNCCCN [spermidine]	no significant fluorescence signal change	–
–	strong fluorescence enhancement	NCCCNCCCCNCCCN [spermine]	strong fluorescence enhancement	relative fluorescence intensity changes monitored at 433 nm, spiked versus healthy samples (P5AS-BrDAP chemosensor): clear distinction between the fluorescence signal outputs; relative fluorescence intensity changes monitored at 423 nm [2, 4]: strong fluorescence enhancement; time to fluorescence signal turn-on (displacement of MDAP from the host) ([2]; spermine 5.1 µM added to P5AS-MDAP in surine, 423 nm): within a few milliseconds; relative fluorescence intensity changes monitored at 423 nm [3, 4]: strong fluorescence enhancement
